Laboratory results from article PMC12094020, “Elucidation of novel turnagainolides and their biosynthetic gene cluster in Bacillus subtilis” (Applied and Environmental Microbiology, 2025).
Entries after “also recorded” stand apart in the source; their conditions may differ.

Tests used:
S. aureus biofilm = assay: biofilm inhibition experiment (crystal violet); type: cell-based; settings: overnight 37°C, TSB, OD570
Method: S. aureus was cultured overnight in 3 mL of TSB medium. The next morning, the culture was diluted to an OD570 of 0.5 with fresh TSB medium and then further diluted 1,000-fold to achieve a final concentration of 1 × 10^6 CFU/mL. Aliquots of 100 µL of the diluted culture were transferred to individual wells of a 96-well plate. Test compounds were added to the first well of each row at a concentration of 800 µg/mL, followed by twofold serial dilutions across the row. The plate was incubated overnight at 37°C. The medium was subsequently discarded, and the wells were washed three times with PBS (KH2PO4 0.27 g, Na2HPO4 1.42 g, NaCl 8 g, KCl 0.2 g in 1 L deionized water, pH 7.4). Next, 200 µL of methanol was added to each well to fix the biofilm, and the plate was incubated for 15 minutes. The methanol was then removed, and the wells were stained with 0.1% crystal violet for 5 minutes. Excess dye was washed off, and the plate was air-dried. To dissolve the bound stain, 200 µL of glacial acetic acid was added to each well, and the plate was shaken for 20 minutes. The absorbance at OD570 was measured using a microplate reader (Thermo Fisher Scientific, Varioskan LUX).

[1] = tested on: quorum-sensing in Staphylococcus aureus; settings: ref 5 (Igarashi et al.); read-out: quorum-sensing inhibition in Staphylococcus aureus, IC50; cited from earlier work
Source text: (§1) Turnagainolides are a distinctive family of cyclic depsipeptides containing one (E)-3-hydroxy-5-phenylpent-4-enoic acid (Hppa) and four proteinogenic amino acids (Fig. S1). As the first member of this family, compound EGM-556 was discovered from the marine fungus Microascus sp. EGM-556 following the introduction of the histone deacetylase inhibitor suberoylanilide hydroxamic acid to activate a silent biosynthetic gene cluster. However, its stereochemistry was only partially resolved, and no bioactivity was reported ([3]). Subsequently, turnagainolides A and B were identified from Bacillus sp., ...

SHIP1 enzyme = settings: in vitro; cited from earlier work
Source text: as §1, with “([3]).” for “([3]). Subsequently, turnagainolides A and B were identified from Bacillus sp., ...”

Candida albicans = settings: cited from earlier work
Source text: as §1

Escherichia coli = settings: cited from earlier work
Source text: as §1

S. aureus = settings: cited from earlier work
Source text: as §1

bacteria = tested on: bacteria; set-up: method as in doi:10.1016/j.cclet.2016.03.018; settings: compared among congeners; cited from earlier work

Substance: Turnagainolide A [Compound 1]
- anti-biofilm activity at 200 µg/mL (S. aureus biofilm; 200 µg/mL): no activity
- anti-biofilm activity at 400 µg/mL (S. aureus biofilm; 400 µg/mL): weak inhibitory activity
- IC50 [1]: 800 nM
- activation of SHIP1 enzyme (SHIP1 enzyme): only turnagainolide B activates SHIP1

Substance: Turnagainolide B [Compound 2]
- anti-biofilm activity at concentrations above 100 µg/mL (S. aureus biofilm): slightly stronger inhibition; also recorded: weak inhibition
- activation of SHIP1 enzyme (SHIP1 enzyme): activates SHIP1; also recorded: activator of the SHIP1 enzyme

Substance: Turnagainolide D [Compound 3]
- anti-biofilm activity at concentrations above 100 µg/mL (S. aureus biofilm): slightly stronger inhibition; also recorded: weak inhibition

Substance: arthroamide [reference compound]
- IC50 [1]: 300 nM

Substance: turnagainolide C
- anti-microbial activity against Candida albicans (Candida albicans): anti-microbial activity
- anti-microbial activity against Escherichia coli (Escherichia coli): anti-microbial activity
- anti-microbial activity against S. aureus (S. aureus): anti-microbial activity
- antibacterial activity (bacteria): only congener that exhibits antibacterial activity
